Measurements reported in ChEMBL document CHEMBL6078700, “Synthesis of novel deuterated EGFR/ALK dual-target inhibitors and their activity against non-small cell lung cancer” (Eur J Med Chem, 2025).
The source made the active and inactive calls.

Tests used:
[1] = system: NCI-H1975; assay: Downregulation of LANCL1 expression in human NCI-H1975 cells; format: functional, cell-based; settings: tested as the 2H-labelled form
[2] = system: Mus musculus; assay: In vivo inhibition of EGFR phosphorylation in human NCI-H1975 cells xenografted in BALB/c-nu mouse at 15 to 30 mg/kg, po administered daily orally for 21 days by IHC analysis; format: functional, organism-based; settings: dose 15-30 mg/kg, time 21.0 day, tested as the 2H-labelled form
[3] = target: ALK tyrosine kinase receptor (Homo sapiens) (UniProt Q9UM73); assay: Inhibition of ALK phosphorylation in human NCI-H2228 cells at 25 to 50 nM incubated for 12 hrs by immunofluorescence based analysis; format: cell-based; settings: dose 25-50 nM, tested as the 2H-labelled form
[4] = system: NCI-H1975; assay: Induction of mitochondrial membrane potential in human NCI-H1975 cells assessed as increase in green fluorescence at 5 nM by JC-1 dye based analysis; format: functional, cell-based; settings: tested as the 2H-labelled form
[5] = target: ALK tyrosine kinase receptor (Homo sapiens) (UniProt Q9UM73); assay: Inhibition of ALK in human NCI-H2228 cells assessed as decrease in pAKT level upto 10 nM incubated for 2 to 4 hrs by Western blot analysis; format: cell-based; settings: time 2-4 hrs, tested as the 2H-labelled form
[6] = target: ALK tyrosine kinase receptor (Homo sapiens) (UniProt Q9UM73); assay: Inhibition of ALK phosphorylation in human NCI-H2228 cells upto 10 nM incubated for 2 to 4 hrs by Western blot analysis; format: cell-based; settings: time 2-4 hrs, tested as the 2H-labelled form
[7] = system: NCI-H1975; assay: Downregulation of Tomm40 expression in human NCI-H1975 cells; format: functional, cell-based; settings: tested as the 2H-labelled form
[8] = system: NCI-H1975; assay: Induction of DNA damage in human NCI-H1975 cells assessed as increase in pH2AX level upto 10 nM incubated for 2 to 4 hrs by Western blot analysis; format: functional, cell-based; settings: time 2-4 hrs, tested as the 2H-labelled form
[9] = system: NCI-H1975; assay: Anti-migration activity in human NCI-H1975 cells assessed as decrease in N-cadherin level upto 10 nM incubated for 2 to 4 hrs by Western blot analysis; format: functional, cell-based; settings: time 2-4 hrs, tested as the 2H-labelled form
[10] = system: NCI-H1975; assay: Downregulation of ERAP2 expression in human NCI-H1975 cells; format: functional, cell-based; settings: tested as the 2H-labelled form
[11] = target: ALK tyrosine kinase receptor (Homo sapiens) (UniProt Q9UM73); assay: Inhibition of ALK in human NCI-H2228 cells assessed as decrease in pERK level upto 10 nM incubated for 2 to 4 hrs by Western blot analysis; format: cell-based; settings: time 2-4 hrs, tested as the 2H-labelled form
[12] = system: NCI-H1975; assay: Induction of DNA damage in human NCI-H1975 cells at 1 nM incubated for 24 hrs by immunofluorescence based analysis; format: functional, cell-based; settings: tested as the 2H-labelled form
[13] = system: NCI-H1975; assay: Anti-invasive activity in human NCI-H1975 cells incubated for 48 hrs by transwell assay; format: functional, cell-based; settings: dose 1-10 nM, tested as the 2H-labelled form
[14] = system: NCI-H1975; assay: Induction of apoptosis in human NCI-H1975 cells assessed as decrease in BCL-2 level upto 10 nM incubated for 2 to 4 hrs by Western blot analysis; format: functional, cell-based; settings: time 2-4 hrs, tested as the 2H-labelled form
[15] = system: NCI-H1975; assay: Anti-migration activity in human NCI-H1975 cells incubated for 24 hrs by scratch-wound assay; format: functional, cell-based; settings: dose 5.0 nM, tested as the 2H-labelled form
[16] = system: NCI-H1975; assay: Inhibition of colony formation in human NCI-H1975 cells assessed as reduction in tumor cell number incubated for 24 hrs followed by medium replacement daily without compound measured after 14 days by crystal violet staining based analysis; format: functional; settings: dose 1-10 nM, tested as the 2H-labelled form
[17] = system: NCI-H1975; assay: Anti-migration activity in human NCI-H1975 cells assessed as increase in E-cadherin level upto 10 nM incubated for 2 to 4 hrs by Western blot analysis; format: functional, cell-based; settings: time 2-4 hrs, tested as the 2H-labelled form
[18] = system: NCI-H1975; assay: Induction of mitochondrial membrane potential in human NCI-H1975 cells assessed as reduction in red fluorescence at 5 nM by JC-1 dye based analysis; format: functional, cell-based; settings: tested as the 2H-labelled form
[19] = system: NCI-H1975; assay: Induction of apoptosis in human NCI-H1975 cells assessed as decrease in BCL-XL level upto 10 nM incubated for 2 to 4 hrs by Western blot analysis; format: functional, cell-based; settings: time 2-4 hrs, tested as the 2H-labelled form
[20] = system: NCI-H1975; assay: Induction of apoptosis in human NCI-H1975 cells assessed as increase in cleaved caspase-3 level upto 10 nM incubated for 2 to 4 hrs by Western blot analysis; format: functional, cell-based; settings: time 2-4 hrs, tested as the 2H-labelled form
[21] = system: NCI-H1975; assay: Inhibition of colony formation in human NCI-H1975 cells assessed as reduction in tumor cell size incubated for 24 hrs followed by medium replacement daily without compound measured after 14 days by crystal violet staining based analysis; format: functional; settings: dose 1-10 nM, tested as the 2H-labelled form
[22] = system: NCI-H1975; assay: Induction of cell cycle arrest in human NCI-H1975 cells assessed as decrease in cyclin D1 level upto 10 nM incubated for 2 to 4 hrs by Western blot analysis; format: functional, cell-based; settings: time 2-4 hrs, tested as the 2H-labelled form

Sequence of ALK tyrosine kinase receptor (Homo sapiens) (Q9UM73 19-1620 limits assumed): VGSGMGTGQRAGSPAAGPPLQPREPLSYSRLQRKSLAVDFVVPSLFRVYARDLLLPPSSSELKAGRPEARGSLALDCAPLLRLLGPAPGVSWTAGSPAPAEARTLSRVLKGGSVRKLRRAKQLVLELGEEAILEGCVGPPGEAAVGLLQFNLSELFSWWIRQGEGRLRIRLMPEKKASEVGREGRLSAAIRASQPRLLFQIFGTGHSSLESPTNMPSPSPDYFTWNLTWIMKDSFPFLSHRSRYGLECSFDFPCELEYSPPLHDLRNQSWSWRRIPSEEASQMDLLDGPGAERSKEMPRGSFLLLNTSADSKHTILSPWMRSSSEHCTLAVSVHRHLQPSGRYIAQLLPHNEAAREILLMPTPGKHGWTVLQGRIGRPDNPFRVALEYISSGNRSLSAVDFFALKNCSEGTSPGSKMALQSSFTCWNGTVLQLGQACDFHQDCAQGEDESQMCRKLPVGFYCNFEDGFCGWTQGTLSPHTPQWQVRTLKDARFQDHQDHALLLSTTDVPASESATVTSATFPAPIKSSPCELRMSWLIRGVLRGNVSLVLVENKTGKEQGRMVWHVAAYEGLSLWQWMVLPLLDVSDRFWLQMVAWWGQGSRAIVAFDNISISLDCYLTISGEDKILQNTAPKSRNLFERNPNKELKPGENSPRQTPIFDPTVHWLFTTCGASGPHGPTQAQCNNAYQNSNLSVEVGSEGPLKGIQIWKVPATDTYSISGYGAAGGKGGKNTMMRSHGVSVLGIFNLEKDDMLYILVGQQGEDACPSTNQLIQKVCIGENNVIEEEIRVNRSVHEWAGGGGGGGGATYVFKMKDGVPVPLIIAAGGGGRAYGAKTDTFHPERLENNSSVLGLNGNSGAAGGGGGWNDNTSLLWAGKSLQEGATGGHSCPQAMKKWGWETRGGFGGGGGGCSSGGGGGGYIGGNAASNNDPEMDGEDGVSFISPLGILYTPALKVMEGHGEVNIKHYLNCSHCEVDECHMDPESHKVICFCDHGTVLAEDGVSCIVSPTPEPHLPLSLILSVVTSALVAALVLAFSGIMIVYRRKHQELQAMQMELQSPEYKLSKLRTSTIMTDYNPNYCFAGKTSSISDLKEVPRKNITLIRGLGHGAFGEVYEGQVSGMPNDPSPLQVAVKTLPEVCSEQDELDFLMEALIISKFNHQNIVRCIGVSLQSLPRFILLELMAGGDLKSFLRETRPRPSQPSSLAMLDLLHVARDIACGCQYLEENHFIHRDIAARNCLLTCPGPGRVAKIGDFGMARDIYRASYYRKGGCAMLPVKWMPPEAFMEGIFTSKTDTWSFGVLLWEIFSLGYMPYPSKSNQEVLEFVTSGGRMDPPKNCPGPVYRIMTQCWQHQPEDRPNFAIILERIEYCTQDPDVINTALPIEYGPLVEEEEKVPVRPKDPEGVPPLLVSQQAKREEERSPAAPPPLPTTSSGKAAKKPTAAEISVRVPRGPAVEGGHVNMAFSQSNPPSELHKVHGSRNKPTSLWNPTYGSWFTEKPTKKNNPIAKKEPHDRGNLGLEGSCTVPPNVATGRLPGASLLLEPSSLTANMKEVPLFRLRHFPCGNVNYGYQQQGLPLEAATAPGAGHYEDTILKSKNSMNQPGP

C=CC(=O)Nc1cc(Nc2ncc(Cl)c(Nc3ccccc3[S+]([O-])CC)n2)c(OC)cc1N(C)CCN(C)C (single isomer, unassigned; (-))
active: Activity [1] | inhibition [2] Active; Inhibitory Effect Was Observed Superior To That Of Osimertinib | inhibition [3] | Activity [4] | inhibition [5] | inhibition [6] | Activity [7] | Activity [8] | Activity [9] | Activity [10] | inhibition [11] | Activity [12] | Activity [13] Dose-dependent-effect | Activity [14] | Activity [15] Dose-dependent-effect | inhibition [16] Dose-dependent-effect | Activity [17] | Activity [18] | Activity [19] | Activity [20] | inhibition [21] Dose-dependent-effect | Activity [22]
